Measurements: patent US4746349A, “Method and compositions for suppressing the nitrification of ammonium in plant growth medium” (American Cyanamid Company, priority 1986, dated 1988)

Assays:
Nitrosomonas spp. = experiment: Nitrification of ammonium in soil incubated at 25° C. (ammonium recovery, nitrate accumulation); settings: 5%, soil 25° C.; for Concentration of nitrate nitrogen / Recovery of Ammonium Nitrogen: 200 ppm N
Procedure: In these evaluations, one hundred grams (100 g) of oven dry, silt loam field soil with low residual nitrogen is added to a 6×12 cm screw-capped glass jar for each sampling date to provide an optimum environment for nitrification.
Two replicates of each treatment-sampling date are established. The soil is adjusted to 50% water saturation with an aqueous solution of ammonium sulfate at 200 ppm N and the chemical to be tested as a nitrification inhibitor at rates of from 0.10 to 0.50 ppm.
Incubation is at either 25° C. or 38° C. for 0, 1, 2, 4, 7, 9, 12, 16 or 20 weeks. Inorganic N is extracted by adding 2M KCl (10:1 v/w) and shaking for one hour, allowing settling for fifteen minutes. A 10 ml aliquot from the supernatant is assayed for ammonium, nitrite and nitrate by standard steam distillation methods (AOAC, pp. 653-655). Nitrapyrin (0.5 ppm) is used as a nitrification inhibitor for comparison. Benzyl alcohol, acetone, and a non-N amended soil are run as controls and as a check on mineralization.
Nitrification: Ammonium recovery and nitrate accumulation are indicative of nitrification, and data obtained with test compounds are reported in Tables I and II.

Nitrobacter spp. = experiment: Nitrite nitrogen in ammonium amended soil incubated at 25° C.; settings: 5%, soil 25° C., 200 ppm N
Procedure: Determination of nitrite nitrogen and nitrate nitrogen in soil prepared in Example 1 above, which is amended with 200 ppm of nitrogen as aqueous ammonium sulfate, […], is determined using the nitrite and nitrate analysis of the American Organization of Analytical Chemists (AOAC pp. 653-655).

With `CC(C)=O` [Acetone] the “Effect on nitrification, in words” value (Nitrosomonas spp.) was “initial rate of nitrification is slowed slightly”, the “Concentration of nitrate nitrogen” value (Nitrosomonas spp.; week 0) was 19 PPM and the “Recovery of Ammonium Nitrogen” value (Nitrosomonas spp.; week 0) was 194 PPM. The “Concentration of nitrate nitrogen” value (Nitrosomonas spp.; week 1) was 7 PPM, the “Recovery of Ammonium Nitrogen” value (Nitrosomonas spp.; week 1) was 138 PPM and the “Concentration of nitrate nitrogen” value (Nitrosomonas spp.; week 2) was 0 PPM. For the same compound, the “Recovery of Ammonium Nitrogen” value (Nitrosomonas spp.; week 2) was 122 PPM, the “Concentration of nitrate nitrogen” value (Nitrosomonas spp.; week 4) was 36 PPM and the “Recovery of Ammonium Nitrogen” value (Nitrosomonas spp.; week 4) was 127 PPM. For the same compound, the “Concentration of nitrate nitrogen” value (Nitrosomonas spp.; week 7) was 75 PPM, the “Recovery of Ammonium Nitrogen” value (Nitrosomonas spp.; week 7) was 8 PPM and the “Concentration of nitrate nitrogen” value (Nitrosomonas spp.; week 9) was 100 PPM. The “Recovery of Ammonium Nitrogen” value (Nitrosomonas spp.; week 9) was 1 PPM, the “Concentration of nitrate nitrogen” value (Nitrosomonas spp.; week 12) was 155 PPM and the “Recovery of Ammonium Nitrogen” value (Nitrosomonas spp.; week 12) was 1 PPM. For the same compound, the “Concentration of nitrate nitrogen” value (Nitrosomonas spp.; week 16) was 165 PPM, the “Recovery of Ammonium Nitrogen” value (Nitrosomonas spp.; week 16) was 1 PPM and the “Concentration of nitrite nitrogen” value (Nitrobacter spp.; week 0) was 6 ppm. For the same compound, the “Concentration of nitrite nitrogen” value (Nitrobacter spp.; week 1) was 4 ppm, the “Concentration of nitrite nitrogen” value (Nitrobacter spp.; week 2) was -1 ppm and the “Concentration of nitrite nitrogen” value (Nitrobacter spp.; week 4) was 9 ppm. For the same compound, the “Concentration of nitrite nitrogen” value (Nitrobacter spp.; week 7) was 56 ppm, the “Concentration of nitrite nitrogen” value (Nitrobacter spp.; week 9) was 5 ppm and the “Concentration of nitrite nitrogen” value (Nitrobacter spp.; week 12) was 20 ppm. The “Concentration of nitrite nitrogen” value (Nitrobacter spp.; week 16) was 10 ppm and the “Concentration of nitrite nitrogen” value (Nitrobacter spp.; week 20) was 11 ppm.
